Reference: patent US9963464B2, “Macrocyclic compounds” (Bayer Pharma Aktiengesellschaft, priority 2014, dated 2018)

Tests used:
Caco-2 permeation assay = type: in vitro ADME; settings: human, pH 7.2, Caco-2 monolayer, 2 μM test compound; for Papp A→B at 2 h, 2 μM: read-out: Papp A-B (Mari); for Papp B→A at 2 h, 2 μM: read-out: Papp B-A (Mari); for efflux ratio at 2 h, 2 μM: read-out: Efflux ratio (Papp B-A/Papp A-B)
Experimental: 5. Caco-2 Permeation Assay:
Caco-2 cells (purchased from DSMZ Braunschweig, Germany) were seeded at a density of 4.5×10^4 cells per well on 24 well insert plates, 0.4 μm pore size, and grown for 15 days in DMEM medium supplemented with 10% fetal bovine serum, 1% GlutaMAX (100×, GIBCO), 100 U/mL penicillin, 100 μg/mL streptomycin (GIBCO) and 1% non essential amino acids (100×). Cells were maintained at 37° C. in a humidified 5% CO2 atmosphere. Medium was changed every 2-3 day. Before running the permeation assay, the culture medium was replaced by a FCS-free hepes-carbonate transport buffer (pH 7.2). For assessment of monolayer integrity the transepithelial electrical resistance (TEER) was measured. Test compounds were predissolved in DMSO and added either to the apical or basolateral compartment in final concentration of 2 μM in transport buffer. Before and after 2 h incubation at 37° C. samples were taken from both compartments. Analysis of compound content was done after precipitation with methanol by LC/MS/MS analysis. Permeability (Papp) was calculated in the apical to basolateral (A→B) and basolateral to apical (B→A) directions. The apparent permeability was calculated using following equation: Papp=(Vr/Po)(1/S)(P2/t) Where Vr is the volume of medium in the receiver chamber, Po is the measured peak area or height of the test drug in the donor chamber at t=o, S the surface area of the monolayer, P2 is the measured peak area of the test drug in the acceptor chamber after 2 h of incubation, and t is the incubation time. The efflux ratio basolateral (B) to apical (A) was calculated by dividing the Papp B-A by the Papp A-B. In addition the compound recovery was calculated.

[1] = molecular target: T1, human PTEFb (CDK9/Cyclin T1) (Homo sapiens, UniProt P50750); assay: Surface plasmon resonance PTEFb; type: binding; settings: SPR; for koff: read-out: Dissociation rate constant koff; for Target resident time: 1/koff
T1 construct: purchased ProQinase, Freiburg, Germany
T1 sequence (P50750 whole entry): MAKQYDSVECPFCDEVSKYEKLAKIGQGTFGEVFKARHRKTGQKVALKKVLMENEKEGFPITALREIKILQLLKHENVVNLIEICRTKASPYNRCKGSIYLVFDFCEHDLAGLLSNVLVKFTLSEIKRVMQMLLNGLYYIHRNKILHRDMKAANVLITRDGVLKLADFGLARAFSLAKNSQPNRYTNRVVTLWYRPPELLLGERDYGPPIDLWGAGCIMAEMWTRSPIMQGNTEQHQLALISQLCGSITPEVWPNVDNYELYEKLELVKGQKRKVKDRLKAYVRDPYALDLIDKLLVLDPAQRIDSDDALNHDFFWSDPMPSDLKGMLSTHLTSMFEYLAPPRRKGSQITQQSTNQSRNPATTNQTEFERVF
T1 sequence (O60563 whole entry partner): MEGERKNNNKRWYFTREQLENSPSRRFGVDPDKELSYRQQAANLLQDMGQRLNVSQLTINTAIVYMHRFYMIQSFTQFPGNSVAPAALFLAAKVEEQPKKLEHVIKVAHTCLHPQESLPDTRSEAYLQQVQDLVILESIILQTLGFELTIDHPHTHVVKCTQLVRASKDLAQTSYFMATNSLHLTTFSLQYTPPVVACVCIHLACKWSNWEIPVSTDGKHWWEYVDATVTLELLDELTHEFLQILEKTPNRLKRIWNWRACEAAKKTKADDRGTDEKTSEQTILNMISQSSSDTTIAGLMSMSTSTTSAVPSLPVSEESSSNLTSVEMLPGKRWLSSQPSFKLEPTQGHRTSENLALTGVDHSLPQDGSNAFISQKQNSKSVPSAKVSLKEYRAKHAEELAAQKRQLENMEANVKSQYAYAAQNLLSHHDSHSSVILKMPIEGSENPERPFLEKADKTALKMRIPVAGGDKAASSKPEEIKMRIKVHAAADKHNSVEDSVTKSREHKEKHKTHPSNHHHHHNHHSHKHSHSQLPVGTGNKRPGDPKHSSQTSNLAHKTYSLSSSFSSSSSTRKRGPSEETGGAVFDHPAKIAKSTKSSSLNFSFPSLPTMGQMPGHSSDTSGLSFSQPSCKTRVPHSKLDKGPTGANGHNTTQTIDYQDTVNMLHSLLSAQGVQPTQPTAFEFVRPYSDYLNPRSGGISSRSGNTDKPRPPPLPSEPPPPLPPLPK
Excerpt: 8. Surface Plasmon Resonance PTEFb
The term “surface plasmon resonance”, as used herein, refers to an optical phenomenon that allows for the analysis of the reversible associations of biological molecules in real time within a biosensor matrix, for example using the Biacore® system (GE Healthcare Biosciences, Uppsala, Sweden). Biacore® uses the optical properties of surface plasmon resonance (SPR) to detect alterations in the refractive index of a buffer, which changes as molecules in solution interact with the target immobilized on the surface. In brief, proteins are covalently bound to the dextran matrix at a known concentration and a ligand for the protein is injected through the dextran matrix. Near infrared light, directed onto the opposite side of the sensor chip surface is reflected and also induces an evanescent wave in the gold film, which in turn, causes an intensity dip in the reflected light at a particular angle known as the resonance angle. If the refractive index of the sensor chip surface is altered (e.g. by compound binding to the bound protein) a shift occurs in the resonance angle. This angle shift can be measured.
The term “KD”, as used herein, is intended to refer to the equilibrium dissociation constant of a particular compound/target protein complex.
The term “koff”, as used herein, is intended to refer to the off-rate, i.e. the dissociation rate constant of a particular compound/target protein complex.
The term “target residence time”, as used herein, is intended to refer to the inverse of the rate of dissociation rate constant (1/koff) of a particular compound/target protein complex.
The ability of the compounds according to the invention to bind human PTEFb may be determined using surface plasmon resonance (SPR). KD values and koff values may be measured using a Biacore® T200 instrument (GE Healthcare, Uppsala, Sweden).
For SPR measurements, recombinant human PTEFb (CDK9/Cyclin T1 recombinant human active protein kinase purchased from ProQinase, Freiburg, Germany) is immobilized using standard amine coupling (Johnsson B et al, Anal Biochem. 1991 Nov. 1; 198(2):268-77). Briefly, carboxymethylated dextran biosensor chips (CM7, GE Healthcare) are activated with N-ethyl-N′-(3-dimethylaminopropyl)-carbodiimide hydrochloride (EDC) and N-hydroxysuccinimide (NHS) according to the supplier's instructions. Human PTEFb is diluted in 1×HBS-EP+(GE Healthcare) into 30 μg/ml and injected on the activated chip surface. Subsequently, a 1:1 solution of 1 M ethanolamine-HCl (GE Healthcare) and 1×HBS-EP is injected to block unreacted groups, resulting in approximately 4000 response units (RU) of immobilized protein. A reference surface is generated by treatment with NHS-EDC and ethanolamine-HCl. Compounds are dissolved in 100% dimethylsulfoxide (DMSO, Sigma-Aldrich, Germany) to a concentration of 10 mM and subsequently diluted in running buffer (1×HBS-EP+pH 7.4 [generated from HBS-EP+Buffer 10× (GE Healthcare): 0.1 M HEPES, 1.5 M NaCl, 30 mM EDTA and 0.5% v/v Surfactant P20], 1% v/v DMSO). For kinetic measurements, four-fold serial dilutions of compound (0.39 nM to 100 nM) are injected over immobilized protein. Binding kinetics is measured at 25° C. with a flow rate of 50 μl/min in running buffer. Compound concentrations are injected for 60 s followed by a dissociation time of 1800 s. The resulting sensorgrams are double-referenced against the reference surface as well as against blank injections.
The double-referenced sensorgrams are fit to a simple reversible Langmuir 1:1 reaction mechanism as implemented in the Biacore® T200 evaluation software 2.0 (GE Healthcare). In cases were full compound dissociation has not occurred at the end of the dissociation phase, the Rmax parameter (response at saturation) is fit as local variable. In all other cases, Rmax is fit as global variable.

[2] = 25° C., below 5E-5 s^-1 not resolvable

| SMILES | Papp A→B at 2 h, 2 μM (Caco-2 permeation assay) [×10⁻⁶ cm/s] | Papp B→A at 2 h, 2 μM (Caco-2 permeation assay) [×10⁻⁶ cm/s] | efflux ratio at 2 h, 2 μM (Caco-2 permeation assay) | koff [1, 2] [s⁻¹] | Target resident time [1] [min] | Dissociation rate constant koff [1, 2] [s⁻¹] |
| --- | --- | --- | --- | --- | --- | --- |
| CS(=O)(=O)N=S(C)(=O)Cc1cc2nc(c1)OCCCOc1cc(F)ccc1-c1cc(ncc1F)N2 (racemic) [Example 22, (rac)-N-[{[15,19-difluoro-3,4-dihydro-2H,11H-10,6-(azeno)-12,16-(metheno)-1,5,11,13-benzodioxadiazacyclooctadecin-8-yl]methyl}(methyl)oxido-λ^6-sulfanylidene]methanesulfonamide] | 8.2 | 12.6 | 1.5 | – | – | – |
| CS(=O)(Cc1cc2cc(c1)OCCCOc1cc(F)ccc1-c1nc(ncc1F)N2)=NC(=O)C(F)(F)F (racemic) [Example 16, (rac)-N-[{[15,19-difluoro-3,4-dihydro-2H,11H-12,16-(azeno)-10,6-(metheno)-1,5,11,13-benzodioxadiazacyclooctadecin-8-yl]methyl}(methyl)oxido-λ^6-sulfanylidene]-2,2,2-trifluoroacetamide] | – | – | – | < 5e-05 | >333 | – |
| CS(=N)(=O)Cc1cc2nc(c1)OCCCCOc1cc(F)ccc1-c1cc(ncc1F)N2 (racemic) [Example 14, (rac)-16,20-difluoro-9-[(S-methylsulfonimidoyl)methyl]-2,3,4,5-tetrahydro-12H-11,7-(azeno)-13,17-(metheno)-1,6,12,14-benzodioxadiazacyclononadecine] | – | – | – | < 5e-05 | >333 | – |
| CSCc1cc2nc(c1)OCCCCOc1cc(F)ccc1-c1cc(ncc1F)N2 [Example 12, 16,20-Difluoro-9-[(methylsulfanyl)methyl]-2,3,4,5-tetrahydro-12H-11,7-(azeno)-13,17-(metheno)-1,6,12,14-benzodioxadiazacyclononadecine] | – | – | – | < 5e-05 | >333 | – |
| CS(=O)(Cc1cc2nc(c1)OCCCOc1cc(F)ccc1-c1cc(ncc1F)N2)=NC(=O)OCCN (racemic) [Example 25, (rac)-2-aminoethyl [{[15,19-difluoro-3,4-dihydro-2H,11H-10,6-(azeno)-12,16-(metheno)-1,5,11,13-benzodioxadiazacyclooctadecin-8-yl]methyl}(methyl)oxido-λ^6-sulfanylidene]carbamate] | 0.4 | 26.2 | 74.5 | – | – | – |
| C[S+]([O-])Cc1cc2nc(c1)OCCOc1cc(F)ccc1-c1cc(ncc1F)N2 (racemic) [Example 10, (rac)-14,18-difluoro-7-[(methylsulfinyl)methyl]-2,3-dihydro-10H-9,5-(azeno)-11,15-(metheno)-1,4,10,12-benzodioxadiazacycloheptadecine] | – | – | – | 0.00245 | 6.8 | – |
| CS(=N)(=O)Cc1cc2nc(c1)OCCCOc1cc(F)ccc1-c1cc(ncc1F)N2 (single isomer, unassigned; enantiomer 1) [Example 6, 15,19-Difluoro-8-[(S-methylsulfonimidoyl)methyl]-3,4-dihydro-2H,11H-10,6-(azeno)-12,16-(metheno)-1,5,11,13-benzodioxadiazacyclooctadecine; Enantiomer 1] | – | – | – | < 5e-05 | >333 | – |
| CS(=N)(=O)Cc1cc2nc(c1)OCCCOc1cc(F)ccc1-c1cc(ncc1F)N2 (single isomer, unassigned; enantiomer 2) [Example 7, 15,19-Difluoro-8-[(S-methylsulfonimidoyl)methyl]-3,4-dihydro-2H,11H-10,6-(azeno)-12,16-(metheno)-1,5,11,13-benzodioxadiazacyclooctadecine; Enantiomer 2] | – | – | – | – | >333 | < 5e-05 |
| CSCc1cc2nc(c1)OCCCOc1cc(F)ccc1-c1cc(ncc1F)N2 [Example 3, 15,19-Difluoro-8-[(methylsulfanyl)methyl]-3,4-dihydro-2H,11H-10,6-(azeno)-12,16-(metheno)-1,5,11,13-benzodioxadiazacyclooctadecine] | – | – | – | < 5e-05 | >333 | – |
| CCNC(=O)N=S(C)(=O)Cc1cc2nc(c1)OCCCOc1cc(F)ccc1-c1cc(ncc1F)N2 (racemic) [Example 17, (rac)-1-[{[15,19-difluoro-3,4-dihydro-2H,11H-10,6-(azeno)-12,16-(metheno)-1,5,11,13-benzodioxadiazacyclooctadecin-8-yl]methyl}(methyl)oxido-λ^6-sulfanylidene]-3-ethylurea] | 8.7 | 8.8 | 1 | – | – | – |
| CS(=N)(=O)Cc1cc2nc(c1)OCCOc1cc(F)ccc1-c1cc(ncc1F)N2 (racemic) [Example 11, (rac)-14,18-difluoro-7-[(S-methylsulfonimidoyl)methyl]-2,3-dihydro-10H-9,5-(azeno)-11,15-(metheno)-1,4,10,12-benzodioxadiazacycloheptadecine] | – | – | – | 0.0029 | 5.7 | – |
| C[S+]([O-])Cc1cc2nc(c1)OCCCOc1cc(F)ccc1-c1cc(ncc1F)N2 (racemic) [Example 4, (rac)-15,19-Difluoro-8-[(methylsulfinyl)methyl]-3,4-dihydro-2H,11H-10,6-(azeno)-12,16-(metheno)-1,5,11,13-benzodioxadiazacyclooctadecine] | – | – | – | < 5e-05 | >333 | – |
| CS(=N)(=O)Cc1cc2cc(c1)OCCCOc1cc(F)ccc1-c1nc(ncc1F)N2 (racemic) [Example 15, (rac)-15,19-difluoro-8-[(S-methylsulfonimidoyl)methyl]-3,4-dihydro-2H,11H-12,16-(azeno)-10,6-(metheno)-1,5,11,13-benzodioxadiazacyclooctadecine] | – | – | – | < 5e-05 | >333 | – |
| C[S+]([O-])Cc1cc2nc(c1)OCCCCOc1cc(F)ccc1-c1cc(ncc1F)N2 (racemic) [Example 13, (rac)-16,20-difluoro-9-[(methylsulfinyl)methyl]-2,3,4,5-tetrahydro-12H-11,7-(azeno)-13,17-(metheno)-1,6,12,14-benzodioxadiazacyclononadecine] | – | – | – | < 5e-05 | >333 | – |
| CSCc1cc2nc(c1)OCCOc1cc(F)ccc1-c1cc(ncc1F)N2 [Example 9, 14,18-Difluoro-7-[(methylsulfanyl)methyl]-2,3-dihydro-10H-9,5-(azeno)-11,15-(metheno)-1,4,10,12-benzodioxadiazacycloheptadecine] | – | – | – | 0.00024 | 69.4 | – |
